{
  "source": "paper PMC9854539",
  "about": "“QSAR Studies, Molecular Docking, Molecular Dynamics, Synthesis, and Biological Evaluation of Novel Quinolinone-Based Thiosemicarbazones against Mycobacterium tuberculosis” (Antibiotics, 2022)",
  "key": {"[1]": {"tested_on": "M. tuberculosis H37RV strain", "set-up": "method as in earlier work", "conditions": "cited from earlier work; for MIC: observed activity of QSAR data set; for MIC exp (log (1/molarMIC)): pMIC from literature MIC in mol/L"}, "[2]": {"tested_on": "M. tuberculosis ATCC 35838", "assay": "Spot culture growth inhibition assay (SPOTi), MIC", "format": "cell-based, Mycobacterium tuberculosis", "conditions": "IC50 Vero / MIC M. tuberculosis ATCC 35838 RR"}, "M. tuberculosis Orphan": {"tested_on": "M. tuberculosis Orphan", "assay": "Spot culture growth inhibition assay (SPOTi), MIC", "format": "cell-based, Mycobacterium tuberculosis", "conditions": "IC50 Vero / MIC M. tuberculosis orphan"}, "[3]": {"tested_on": "M. tuberculosis ATCC 35822", "assay": "Spot culture growth inhibition assay (SPOTi), MIC", "format": "cell-based, Mycobacterium tuberculosis", "conditions": "IC50 Vero / MIC M. tuberculosis ATCC 35822 RI"}, "MTT cytotoxicity assay": {"assay": "MTT cytotoxicity assay", "conditions": "African green monkey"}, "M. tuberculosis H37Rv": {"tested_on": "M. tuberculosis H37Rv", "assay": "Spot culture growth inhibition assay (SPOTi), MIC", "format": "cell-based, Mycobacterium tuberculosis", "conditions": "for Selectivity Index (SI) (SI = IC50/MIC) b: IC50 Vero / MIC M. tuberculosis H37Rv; for MIC: Mycobacterium tuberculosis, H37RV, SPOTi, 2–3 weeks at 37 °C"}, "M. bovis BCG": {"tested_on": "M. bovis BCG", "assay": "microbe, parasite or virus in culture", "format": "cell-based", "conditions": "for Selectivity Index (SI) (SI = IC50/MIC) a: IC50 Vero / MIC M. bovis BCG; for MIC: Mycobacterium tuberculosis variant bovis BCG, BCG, read-out: MIC M. bovis BCG"}, "M. tuberculosis Haarlem": {"tested_on": "M. tuberculosis Haarlem", "assay": "Spot culture growth inhibition assay (SPOTi), MIC", "format": "cell-based, Mycobacterium tuberculosis", "conditions": "IC50 Vero / MIC M. tuberculosis Haarlem"}, "M. tuberculosis LAM 9": {"tested_on": "M. tuberculosis LAM 9", "assay": "Spot culture growth inhibition assay (SPOTi), MIC", "format": "cell-based, Mycobacterium tuberculosis", "conditions": "IC50 Vero / MIC M. tuberculosis LAM 9 (sit 42)"}, "M. tuberculosis Beijing": {"tested_on": "M. tuberculosis Beijing", "assay": "Spot culture growth inhibition assay (SPOTi), MIC", "format": "cell-based, Mycobacterium tuberculosis", "conditions": "for Selectivity Index (SI) (SI = IC50/MIC) d: IC50 Vero / MIC M. tuberculosis Beijing"}},
  "note": "Values joined by “and” are separate entries in the source; they are usually repeats but may differ in a detail not shown here. Equal entries are not always repeated.",
  "data": [
    {"molecule": "O=C(NNc1ccnc2cc(Cl)ccc12)c1ccccc1N=Cc1ccc(Cl)cc1Cl", "note": "[Compound 22]", "values": [
      {"measurement": "MIC", "setting": "[1]", "value": 6.25, "unit": "µM"},
      {"measurement": "MIC exp (log (1/molarMIC))", "setting": "[1]", "value": 5.20}
    ]},
    {"molecule": "CC1(C)CC(=O)c2c(nc3ccccc3c2-c2ccccc2)C1", "note": "[Compound 31]", "values": [
      {"measurement": "MIC", "setting": "[1]", "value": 20.74, "unit": "µM"},
      {"measurement": "MIC exp (log (1/molarMIC))", "setting": "[1]", "value": 4.68}
    ]},
    {"molecule": "CC(/C=C/c1cc2ccc(Cl)cc2[nH]c1=O)=N\\NC(N)=S", "note": "[Compound 11d, (E)-2-((E)-4-(7-Chloro-2-oxo-1,2-dihydroquinolin-3-yl)but-3-en-2-ylidene)hydrazine-1-carbothioamide]", "values": [
      {"measurement": "Selectivity Index (SI) (SI = IC50/MIC) g", "setting": "[2]", "value": 0.50},
      {"measurement": "Selectivity Index (SI) (SI = IC50/MIC) c", "setting": "M. tuberculosis Orphan", "value": 0.26},
      {"measurement": "Selectivity Index (SI) (SI = IC50/MIC) h", "setting": "[3]", "value": 0.26},
      {"measurement": "IC50 at 48 h", "setting": "MTT cytotoxicity assay", "value": 1650, "unit": "nM"},
      {"measurement": "Selectivity Index (SI) (SI = IC50/MIC) b", "setting": "M. tuberculosis H37Rv", "value": 11.00},
      {"measurement": "MIC", "setting": "M. tuberculosis H37Rv", "value": 0.15, "unit": "µM"},
      {"measurement": "Selectivity Index (SI) (SI = IC50/MIC) a", "setting": "M. bovis BCG", "value": 55.00},
      {"measurement": "MIC", "setting": "M. bovis BCG", "value": 0.03, "unit": "µM"},
      {"measurement": "Selectivity Index (SI) (SI = IC50/MIC) f", "setting": "M. tuberculosis Haarlem", "value": 1.06},
      {"measurement": "Selectivity Index (SI) (SI = IC50/MIC) e", "setting": "M. tuberculosis LAM 9", "value": 0.53},
      {"measurement": "melting point", "value": 246, "unit": "°C"},
      {"measurement": "Selectivity Index (SI) (SI = IC50/MIC) d", "setting": "M. tuberculosis Beijing", "value": 5.00}
    ]},
    {"molecule": "CC(/C=C/c1cc2cc(Br)ccc2[nH]c1=O)=N\\NC(N)=S", "note": "[Compound 11e, (E)-2-((E)-4-(6-Bromo-2-oxo-1,2-dihydroquinolin-3-yl)but-3-en-2-ylidene)hydrazine-1-carbothioamide]", "values": [
      {"measurement": "Selectivity Index (SI) (SI = IC50/MIC) g", "setting": "[2]", "value": 0.81},
      {"measurement": "Selectivity Index (SI) (SI = IC50/MIC) c", "setting": "M. tuberculosis Orphan", "value": 0.08},
      {"measurement": "Selectivity Index (SI) (SI = IC50/MIC) h", "setting": "[3]", "value": 1.61},
      {"measurement": "IC50 at 48 h", "setting": "MTT cytotoxicity assay", "value": 2200, "unit": "nM"},
      {"measurement": "Selectivity Index (SI) (SI = IC50/MIC) b", "setting": "M. tuberculosis H37Rv", "value": 16.92},
      {"measurement": "MIC", "setting": "M. tuberculosis H37Rv", "value": 0.13, "unit": "µM"},
      {"measurement": "Selectivity Index (SI) (SI = IC50/MIC) a", "setting": "M. bovis BCG", "value": 16.92},
      {"measurement": "MIC", "setting": "M. bovis BCG", "value": 0.13, "unit": "µM"},
      {"measurement": "Selectivity Index (SI) (SI = IC50/MIC) f", "setting": "M. tuberculosis Haarlem", "value": 0.08},
      {"measurement": "Selectivity Index (SI) (SI = IC50/MIC) e", "setting": "M. tuberculosis LAM 9", "value": 0.80},
      {"measurement": "melting point", "value": 253, "unit": "°C"},
      {"measurement": "Selectivity Index (SI) (SI = IC50/MIC) d", "setting": "M. tuberculosis Beijing", "value": 8.15},
      {"measurement": "potency relative to Oxafloxacin", "setting": "M. tuberculosis Beijing; M. tuberculosis Beijing", "value": "tenfold more potent than Oxafloxacin"}
    ]},
    {"molecule": "O=C(NNc1ccnc2cc(Cl)ccc12)c1ccccc1N=Cc1ccc(F)cc1", "note": "[Compound 20]", "values": [
      {"measurement": "MIC", "setting": "[1]", "value": 6.25, "unit": "µM"},
      {"measurement": "MIC exp (log (1/molarMIC))", "setting": "[1]", "value": 5.2}
    ]},
    {"molecule": "O=C(NCCNc1ccnc2cc(Cl)ccc12)Nc1ccc(Cl)cc1", "note": "[Compound 18]", "values": [
      {"measurement": "MIC", "setting": "[1]", "value": 10.65, "unit": "µM"},
      {"measurement": "MIC exp (log (1/molarMIC))", "setting": "[1]", "value": 4.97}
    ]},
    {"molecule": "Cc1nc2ccccc2c(-c2ccccc2)c1C(=O)Nc1ccccc1Cl", "note": "[Compound 39]", "values": [
      {"measurement": "MIC", "setting": "[1]", "value": "33.53 µM and 18.42 µM"},
      {"measurement": "MIC exp (log (1/molarMIC))", "setting": "[1]", "value": "4.47 and 4.73"}
    ]},
    {"molecule": "O=C1CC(c2ccccc2)Cc2nc3ccccc3c(-c3ccccc3)c21", "note": "(stereo not shown) [Compound 32]", "values": [
      {"measurement": "MIC", "setting": "[1]", "value": 35.77, "unit": "µM"},
      {"measurement": "MIC exp (log (1/molarMIC))", "setting": "[1]", "value": 4.45}
    ]},
    {"molecule": "O=C(NNc1ccnc2cc(Cl)ccc12)c1ccccc1N=Cc1ccc(-c2cccs2)cc1", "note": "[Compound 25]", "values": [
      {"measurement": "MIC", "setting": "[1]", "value": 6.25, "unit": "µM"},
      {"measurement": "MIC exp (log (1/molarMIC))", "setting": "[1]", "value": 5.20}
    ]},
    {"molecule": "O=C(NNc1ccnc2cc(Cl)ccc12)c1ccccc1N=Cc1ccc(Br)cc1", "note": "[Compound 21]", "values": [
      {"measurement": "MIC", "setting": "[1]", "value": 6.25, "unit": "µM"},
      {"measurement": "MIC exp (log (1/molarMIC))", "setting": "[1]", "value": 5.2}
    ]},
    {"molecule": "Cc1nc2ccccc2c(-c2ccccc2)c1C(=O)NCc1ccc(C(C)(C)C)cc1", "note": "[Compound 44]", "values": [
      {"measurement": "MIC", "setting": "[1]", "value": 33.75, "unit": "µM"},
      {"measurement": "MIC exp (log (1/molarMIC))", "setting": "[1]", "value": 4.47}
    ]},
    {"molecule": "NNC(=O)c1ccncc1", "note": "[Isoniazid, reference compound]", "values": [
      {"measurement": "MIC", "setting": "M. tuberculosis H37Rv", "value": 0.36, "unit": "µM"},
      {"measurement": "MIC", "setting": "M. bovis BCG", "value": 0.36, "unit": "µM"}
    ]},
    {"molecule": "COc1cc(C=Nc2ccccc2C(=O)NNc2ccnc3cc(Cl)ccc23)cc(OC)c1OC", "note": "[Compound 24]", "values": [
      {"measurement": "MIC", "setting": "[1]", "value": 6.25, "unit": "µM"},
      {"measurement": "MIC exp (log (1/molarMIC))", "setting": "[1]", "value": 5.20}
    ]},
    {"molecule": "Cc1nc2ccccc2c(-c2ccccc2)c1C(=O)NCc1ccccc1Cl", "note": "[Compound 43]", "values": [
      {"measurement": "MIC", "setting": "[1]", "value": 64.42, "unit": "µM"},
      {"measurement": "MIC exp (log (1/molarMIC))", "setting": "[1]", "value": 4.19}
    ]}
  ]
}
